Test results taken from patent US20220323455A1, “FUSED HETEROCYCLIC DERIVATIVES AS ANTIVIRAL AGENTS” (priority 2019, published 2022).

Test system: HBV
Experiment: HBV replication inhibition assay (BDNA assay) in HepG2.2.15 cells
Assay type: cell-based, Hepatitis B virus
Settings: 6 days, encapsidated HBV DNA in supernatant
Protocol: HBV replication inhibition by the disclosed compounds were determined in cells infected or transfected with HBV or cells with stably integrated HBV, such as HepG2.2.15 cells (Sells et al. 1987). In this example, HepG2.2.15 cells were maintained in cell culture medium containing 10% fetal bovine serum (FBS), Geneticin, L-glutamine, penicillin and streptomycin. HepG2.2.15 cells were seeded in 96-well plates at a density of 40,000 cells/well and were treated with serially diluted compounds at a final DMSO concentration of 0.5% either alone or in combination by adding drugs in a checker box format. Cells were incubated with compounds for three days, after which medium was removed and fresh medium containing compounds was added to cells and incubated for another three days. At day 6, supernatant was removed and treated with DNase at 37° C. for 60 minutes, followed by enzyme inactivation at 75° C. for 15 minutes. Encapsidated HBV DNA was released from the virions and covalently linked HBV polymerase by incubating in lysis buffer (Affymetrix QS0010) containing 2.5 μg proteinase K at 50° C. for 40 minutes. HBV DNA was denatured by addition of 0.2 M NaOH and detected using a branched DNA (BDNA) QuantiGene assay kit according to manufacturer recommendation (Affymetrix). HBV DNA levels were also quantified using qPCR, based on amplification of encapsidated HBV DNA extraction with QuickExtraction Solution (Epicentre Biotechnologies) and amplification of HBV DNA using HBV specific PCR probes that can hybridize to HBV DNA and a fluorescently labeled probe for quantitation. In addition, cell viability of HepG2.2.15 cells incubated with test compounds alone or in combination was determined by using CellTitre-Glo reagent according to the manufacturer protocol (Promega). The mean background signal from wells containing only culture medium was subtracted from all other samples, and percent inhibition at each compound concentration was calculated by normalizing to signals from HepG2.2.15 cells treated with 0.5% DMSO using equation E1.
% inhibition(DMSOave−Xi)DMSOave×100% E1:
where DMSOave is the mean signal calculated from the wells that were treated with DMSO control (0% inhibition control) and Xi is the signal measured from the individual wells. EC50 values, effective concentrations that achieved 50% inhibitory effect, were determined by non-linear fitting using Graphpad Prism software (San Diego, Calif.) and equation E2.
Y=Ymin+(Ymax−Ymin)/(1+10(Log EC50−X)×HillSlope) E2:
where Y represents percent inhibition values and X represents the logarithm of compound concentrations.
Selected disclosed compounds were assayed in the HBV replication assay (BDNA assay), as described above, and a representative group of these active compounds is shown in Table 5.

With `C#CC1(O)CCC(F)(F)c2c3c(nn2C1)CCN(C(=O)Nc1ccnc(Br)c1F)C3` (single isomer, unassigned) [Example 65, (S*)—N-(2-Bromo-3-fluoropyridin-4-yl)-8-ethynyl-11,11-difluoro-8-hydroxy-3,4,8,9,10,11-hexahydro-1H-pyrido[4′,3′:3,4]pyrazolo[1,5-a]azepine-2(7H)-carboxamide] as the compound, how does the EC50 read?
The EC50 was 144 nM.

Which EC50 does the source give for `O=C(Nc1ccnc(C(F)F)c1F)N1CCc2nn3c(c2C1)C(F)(F)CCC(O)(COCC(F)F)C3` (single isomer, unassigned) [Example 33, (R*)-8-((2,2-Difluoroethoxy)methyl)-N-(2-(difluoromethyl)-3-fluoropyridin-4-yl)-11,11-difluoro-8-hydroxy-3,4,8,9,10,11-hexahydro-1H-pyrido[4′,3′:3,4]pyrazolo[1,5-a]azepine-2(7H)-carboxamide] here?
Its EC50 is 356 nM.

How did the EC50 turn out when `C[C@@H]1Cc2nn3c(c2CN1C(=O)Nc1ccc(F)c(C#N)c1)C(F)(F)CC(O)(CO)CC3` (single isomer, unassigned) [Example 126, (3R,9S*)—N-(3-Cyano-4-fluorophenyl)-11,11-difluoro-9-hydroxy-9-(hydroxymethyl)-3-methyl-3,4,8,9,10,11-hexahydro-1H-pyrido[4′,3′:3,4]pyrazolo[1,5-a]azepine-2(7H)-carboxamide] was run?
Its EC50 is 5 nM.

With `N#Cc1cc(NC(=O)N2CCc3nn4c(c3C2)C(F)(F)CC(O)CC4)ccc1F` (single isomer, unassigned) [Example 141, (S*)—N-(3-Cyano-4-fluorophenyl)-11,11-difluoro-9-hydroxy-3,4,8,9,10,11-hexahydro-1H-pyrido[4′,3′:3,4]pyrazolo[1,5-a]azepine-2(7H)-carboxamide] as the compound, how does the EC50 read?
Its EC50 is 16 nM.

Which EC50 does the source give for `C[C@@H]1Cc2nn3c(c2CN1C(=O)Nc1ccnc(Br)c1F)C(F)(F)CC(O)CC3` (single isomer, unassigned) [Example 117, (3R,9S*)—N-(2-Bromo-3-fluoropyridin-4-yl)-11,11-difluoro-9-hydroxyl-3-methyl-3,4,8,9,10,11-hexahydro-1H-pyrido[4′,3′:3,4]pyrazolo[1,5-a]azepine-2(7H)-carboxamide] here?
Its EC50 is 18 nM.

For `C[C@@H]1Cc2nn3c(c2CN1C(=O)Nc1ccnc(C(F)F)c1F)C(F)(F)CC(O)CC3` (single isomer, unassigned) [Example 121, (3R,9S*)—N-(2-(Difluoromethyl)-3-fluoropyridin-4-yl)-11,11-difluoro-9-hydroxy-3-methyl-3,4,8,9,10,11-hexahydro-1H-pyrido[4′,3′:3,4]pyrazolo[1,5-a]azepine-2(7H)-carboxamide], which EC50 is on record?
Its EC50 is 8 nM.

Which EC50 does the source give for `C[C@@H]1Cc2nn3c(c2CN1C(=O)Nc1ccnc(C(F)F)c1F)C(F)(F)CCC(F)(CO)C3` (single isomer, unassigned) [Example 113, (3R,8S*)—N-(2-(Difluoromethyl)-3-fluoropyridin-4-yl)-8,11,11-trifluoro-8-(hydroxymethyl)-3-methyl-3,4,8,9,10,11-hexahydro-1H-pyrido[4′,3′:3,4]pyrazolo[1,5-a]azepine-2(7H)-carboxamide] here?
Its EC50 is 154 nM.

With `O=C(Nc1ccnc(Br)c1F)N1CCc2nn3c(c2C1)C(F)(F)CCC(CO)C3` (single isomer, unassigned) [Example 26, (R*)—N-(2-Bromo-3-fluoropyridin-4-yl)-11,11-difluoro-8-(hydroxymethyl)-3,4,8,9,10,11-hexahydro-1H-pyrido[4′,3′:3,4]pyrazolo[1,5-a]azepine-2(7H)-carboxamide] as the compound, how does the EC50 read?
Its EC50 is 25 nM.

With `C[C@@H]1Cc2nn3c(c2CN1C(=O)Nc1ccc(F)c(C#N)c1)C(F)(F)CCC(O)(COCC(F)F)C3` (single isomer, unassigned) [Example 94, (3R,8S*)—N-(3-Cyano-4-fluorophenyl)-8-((2,2-difluoroethoxy)methyl)-11,11-difluoro-8-hydroxy-3-methyl-3,4,8,9,10,11-hexahydro-1H-pyrido[4′,3′:3,4]pyrazolo[1,5-a]azepine-2(7H)-carboxamide] as the compound, how does the EC50 read?
The EC50 was 15 nM.

For `C[C@@H]1Cc2nn3c(c2CN1C(=O)Nc1ccnc(Br)c1F)C(F)(F)CCC(F)(CO)C3` (single isomer, unassigned) [Example 112, (3R,8S*)—N-(2-Bromo-3-fluoropyridin-4-yl)-8,11,11-trifluoro-8-(hydroxymethyl)-3-methyl-3,4,8,9,10,11-hexahydro-1H-pyrido[4′,3′:3,4]pyrazolo[1,5-a]azepine-2(7H)-carboxamide], which EC50 is on record?
Its EC50 is 45 nM.

Which EC50 does the source give for `C[C@@H]1Cc2nn3c(c2CN1C(=O)Nc1ccnc(Br)c1F)C(F)(F)CC(O)(CF)CC3` (single isomer, unassigned) [Example 129, (3R,9S*)—N-(2-Bromo-3-fluoropyridin-4-yl)-11,11-difluoro-9-(fluoromethyl)-9-hydroxy-3-methyl-3,4,8,9,10,11-hexahydro-1H-pyrido[4′,3′:3,4]pyrazolo[1,5-a]azepine-2(7H)-carboxamide] here?
The EC50 was 6 nM.

How did the EC50 turn out when `N#Cc1cc(NC(=O)N2CCc3nn4c(c3C2)C(F)(F)CCC(O)(COCC(F)F)C4)ccc1F` (single isomer, unassigned) [Example 31, (R*)—N-(3-Cyano-4-fluorophenyl)-8-((2,2-difluoroethoxy)methyl)-11,11-difluoro-8-hydroxy-3,4,8,9,10,11-hexahydro-1H-pyrido[4′,3′:3,4]pyrazolo[1,5-a]azepine-2(7H)-carboxamide] was run?
The EC50 was 42 nM.

Which EC50 does the source give for `N#Cc1cc(NC(=O)N2CCc3nn4c(c3C2)C(F)(F)CCC(CO)C4)ccc1F` (single isomer, unassigned) [Example 23, (R*)—N-(3-Cyano-4-fluorophenyl)-11,11-difluoro-8-(hydroxymethyl)-3,4,8,9,10,11-hexahydro-1H-pyrido[4′,3′:3,4]pyrazolo[1,5-a]azepine-2(7H)-carboxamide] here?
The EC50 was 18 nM.

`N#Cc1c(F)ccc(NC(=O)N2CCc3nn4c(c3C2)C(F)(F)CCC(CO)C4)c1F` (single isomer, unassigned) [Example 21, (S*)—N-(3-Cyano-2,4-difluorophenyl)-11,11-difluoro-8-(hydroxymethyl)-3,4,8,9,10,11-hexahydro-1H-pyrido[4′,3′:3,4]pyrazolo[1,5-a]azepine-2(7H)-carboxamide] was tested. Which EC50 did it give?
The EC50 was 1 nM.

`C#CC1(O)CCC(F)(F)c2c3c(nn2C1)CCN(C(=O)Nc1ccnc(C(F)F)c1F)C3` (single isomer, unassigned) [Example 66, (S*)—N-(2-(Difluoromethyl)-3-fluoropyridin-4-yl)-8-ethynyl-11,11-difluoro-8-hydroxy-3,4,8,9,10,11-hexahydro-1H-pyrido[4′,3′:3,4]pyrazolo[1,5-a]azepine-2(7H)-carboxamide] was tested. Which EC50 did it give?
Its EC50 is 149 nM.

Which EC50 does the source give for `N#Cc1cc(NC(=O)N2CCc3nn4c(c3C2)C(F)(F)CCC(COCC(F)F)C4)ccc1F` (single isomer, unassigned) [Example 27, (S*)—N-(3-Cyano-4-fluorophenyl)-8-((2,2-difluoroethoxy)methyl)-11,11-difluoro-3,4,8,9,10,11-hexahydro-1H-pyrido[4′,3′:3,4]pyrazolo[1,5-a]azepine-2(7H)-carboxamide] here?
Its EC50 is 6 nM.

Same assay, conditions: Hepatitis B virus, HepG2.2.15, 144 h, 6 days, encapsidated HBV DNA in supernatant

For `CCC1(O)CCC(F)(F)c2c3c(nn2C1)CCN(C(=O)Nc1ccc(F)c(C#N)c1)C3` (single isomer, unassigned) [Example 61, (S*)—N-(3-Cyano-4-fluorophenyl)-8-ethyl-11,11-difluoro-8-hydroxy-3,4,8,9,10,11-hexahydro-1H-pyrido[4′,3′:3,4]pyrazolo[1,5-a]azepine-2(7H)-carboxamide], which EC50 is on record?
The EC50 was 40 nM.
